From PubChem BioAssay (NCI)
Where “and” joins values, the source holds several entries; their conditions need not be identical. Equal values may be shown once.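 Briefly, cells in 96-well plates were exposed to five compound concentrations for 48 h, and endpoints were estimated by linear interpolation. GI50 marks 50% less growth. TGI marks complete inhibition of growth.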

Experiments:
Assay in all cases: inhibition of tumour cell growth, NCI panel, 48 h
HS 578T breast = system: HS 578T breast
KM12 colon = system: KM12 colon
LOX IMVI melanoma = system: LOX IMVI melanoma
NCI-H226 lung = system: NCI-H226 lung
SF-268 CNS = system: SF-268 CNS
SF-295 CNS = system: SF-295 CNS
SK-MEL-28 melanoma = system: SK-MEL-28 melanoma
SN12C renal = system: SN12C renal
SNB-19 CNS = system: SNB-19 CNS
SNB-75 CNS = system: SNB-75 CNS

Row | Compound | GI50 (HS 578T breast) | TGI (HS 578T breast) | TGI (KM12 colon) | GI50 (LOX IMVI melanoma) | TGI (LOX IMVI melanoma) | GI50 (NCI-H226 lung) | TGI (NCI-H226 lung) | GI50 (SF-268 CNS) | TGI (SF-268 CNS) | GI50 (SF-295 CNS) | TGI (SF-295 CNS) | GI50 (SK-MEL-28 melanoma) | TGI (SK-MEL-28 melanoma) | GI50 (SN12C renal) | TGI (SN12C renal) | GI50 (SNB-19 CNS) | TGI (SNB-19 CNS) | TGI (SNB-75 CNS) | GI50 (KM12 colon) | GI50 (SNB-75 CNS)
1 | N[C@H](C(=O)O)[C@@H]1CC(Cl)=NO1 | 7.42 µM | > 1000 µM | > 741 µM | 3.28 µM | > 1000 µM | 39.9 µM and 10.8 µM | > 316 µM | 10.2 µM | > 848 µM | 7.59 µM and 2.63 µM | > 908 µM | 28.9 µM | > 1000 µM | 53.7 µM | > 1000 µM | 16.8 µM and 5.14 µM | > 661 µM | > 1000 µM |  | 
2 | C=CC(=O)N1CCC(Oc2cc3c(Nc4ccc(Cl)c(Cl)c4F)ncnc3cc2OC)CC1 | 3.61 µM and 1.74 µM | 44.1 µM and 8.16 µM | 27.1 µM and > 10 µM | 1.55 µM and 1.2 µM | 5.73 µM and 2.84 µM | 1.84 µM and 0.944 µM | 16.2 µM and > 10 µM | 0.743 µM and 0.466 µM | 19.4 µM and > 7.14 µM | 3.78 µM and 2.21 µM | 17.3 µM and > 10 µM | 11.6 µM and > 9.46 µM | 25.8 µM and > 10 µM | 2.88 µM and 1.79 µM | 25.2 µM and > 10 µM | 8.97 µM and 6.52 µM | 23.9 µM and > 10 µM | 13.7 µM and 4.4 µM | 7.96 µM and 4.12 µM | 1.07 µM and 0.48 µM
3 | O=C1C=CC(=O)C2C1C1(Cl)C(Cl)=C(Cl)C2(Cl)C1(Cl)Cl (stereo not drawn) | 2.51 µM | 7.92 µM | 8.95 µM | 4.05 µM | 16.2 µM | 10.8 µM | 49.1 µM | 3.16 µM | 14.8 µM | 1.91 µM | 6.62 µM | 9.63 µM | 21.8 µM | 6 µM | 25.6 µM | 11.2 µM | 25.4 µM | 5.48 µM | 2.63 µM | 1.13 µM
4 | Cn1c(Cl)c(/C=C2/C(=O)Nc3ccccc32)c2ccccc21 | 0.248 µM | 2.03 µM | 1.27 µM | 1.16 µM | 18.9 µM | 1.83 µM | 21.9 µM | 4.08 µM | > 35.7 µM | 0.223 µM | 2.21 µM | 1.08 µM | 19.7 µM | 1.87 µM | 23.7 µM | 0.935 µM | 29.9 µM | 23 µM | 0.0689 µM | 3.28 µM
5 | NCCCNCCS |  | > 100 µM | > 100 µM |  | > 100 µM |  | > 100 µM |  | > 100 µM |  | > 100 µM |  | > 100 µM |  | > 100 µM |  | > 100 µM | > 100 µM |  | 
6 | COc1ccc2c(c1)C(=O)/C(=C/c1cccc(OCC(=O)c3ccccc3)c1)O2 | 13.8 µM | 48.1 µM | 16.1 µM | 2.83 µM | 9.54 µM | 15.9 µM | 43.5 µM | 4.25 µM | 16.6 µM | 20 µM | 38.1 µM | 4.76 µM | 15.7 µM | 6.15 µM | 25.6 µM | 15 µM | 29 µM | 22.9 µM | 4.23 µM | 10.7 µM
7 | Cc1cn(-c2cc(NC(=O)c3cccc(C#Cc4cccc5[nH]nc(N)c45)c3)cc(C(F)(F)F)c2)cn1 | 2.86 µM | 42.2 µM | > 100 µM | 2.87 µM | > 100 µM | 0.771 µM | 61.2 µM | 4.81 µM | > 100 µM | 4.26 µM | 28.4 µM | 2.62 µM | 25.7 µM | 7.6 µM | > 100 µM | 8.14 µM | 32.7 µM | 9.02 µM | 1.29 µM | 2.19 µM
8 | CC(C)(C)c1cc([N+](=O)[O-])cc([N+](=O)[O-])c1O |  | > 10 µM | > 10 µM |  | > 10 µM |  | > 10 µM |  | > 10 µM |  | > 10 µM |  | > 10 µM |  | > 10 µM |  | > 10 µM | > 10 µM |  | 
9 | CCOc1cccc(/C=N/NC(=O)c2cccc(Nc3ccnc(C(F)(F)F)c3)c2)c1O | 5.53 µM | 72.7 µM | 17.6 µM | 0.473 µM | > 26.6 µM | 0.827 µM | 9.82 µM | 0.873 µM | > 45.3 µM | 2.4 µM | 27.9 µM | 2.31 µM | 36.6 µM | 1.66 µM | > 70.7 µM | 1.63 µM | > 100 µM | 39.2 µM | 1.48 µM | 11.2 µM
